Reference: PMC2654718 (Biochemistry, 2009)

What was measured:
[1] = mice; cited from earlier work
[2] = tested on: serum vitamin D binding protein; conditions: cited from earlier work
MBP-VDR-LBDmt = molecular target: T1, MBP-VDR-LBDmt (Homo sapiens, UniProt P11473, DEL165-215); assay: Fluorescence polarization peptide binding assay; conditions: FP
T1 sequence (P11473 with tags, fused parts or gaps DEL165-215 limits assumed): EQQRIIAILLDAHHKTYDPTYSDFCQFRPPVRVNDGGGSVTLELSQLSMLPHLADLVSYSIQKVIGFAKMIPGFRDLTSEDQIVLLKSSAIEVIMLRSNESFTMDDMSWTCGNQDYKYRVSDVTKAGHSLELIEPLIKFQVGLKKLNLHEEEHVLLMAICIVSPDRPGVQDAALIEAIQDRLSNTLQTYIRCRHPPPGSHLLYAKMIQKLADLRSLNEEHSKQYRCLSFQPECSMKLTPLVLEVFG

VDR-LBD = molecular target: T2, VDR-LBD (Homo sapiens, UniProt P11473, DEL165-215); assay: Isothermal titration calorimetry of SRC2-3 peptides with VDR-LBD; conditions: 25 °C, 20 mM HEPES pH 7.5, 150 mM NaCl; for n: ITC stoichiometry; for ΔH: ITC
T2 sequence (P11473 with tags, fused parts or gaps DEL165-215 limits assumed): T1 sequence (P11473 with tags, fused parts or gaps DEL165-215 limits assumed)

Row | SMILES | Influence on calcium serum levels (in words) [1] | Binding to serum vitamin D binding protein (in words) [2] | Binding affinity towards VDR (in words) (MBP-VDR-LBDmt; in the presence of ligand) | Binding in the absence of ligand (in words) (MBP-VDR-LBDmt; no ligand, no plateau at higher protein concentrations) | n (VDR-LBD) | ΔH (VDR-LBD)
1 | CCC(CC)(c1ccc(OCC(O)CO)c(C)c1)c1ccc(OCC(O)C(C)(C)C)c(C)c1 (centres unmarked) [LG190178] | no influence | does not bind | – | – | – | –
2 | CC(C)C[C@H](NC(=O)[C@H](C)NC(=O)[C@H](CC(N)=O)NC(=O)[C@H](CCC(=O)O)NC(=O)[C@H](CCCCN)NC(=O)[C@H](CCCCN)NC(=O)[C@H](CCCCN)NC(=O)[C@@H](N)CS)C(=O)N[C@@H](CC(C)C)C(=O)N[C@@H](CCCNC(=N)N)C(=O)N[C@@H](Cc1ccc(O)cc1)C(=O)N[C@@H](CC(C)C)C(=O)N[C@@H](CC(C)C)C(=O)N[C@@H](CC(=O)O)C(=O)N[C@@H](CCCCN)C(=O)N[C@@H](CC(=O)O)C(=O)N[C@@H](CC(=O)O)C(=O)N[C@H](C(=O)N[C@@H](CCCCN)C(=O)N[C@@H](CC(=O)O)C(=O)O)[C@@H](C)O [SRC2-3] | – | – | High affinity binding | weak or no binding | 1.02±0.02 | -6.7 ± 0.3 kcal/mol
3 | CC(C)C[C@H](NC(=O)[C@H](C)NC(=O)[C@H](CC(N)=O)NC(=O)[C@H](CCC(=O)O)NC(=O)[C@H](CCCCN)NC(=O)[C@H](CCCCN)NC(=O)[C@H](CCCCN)NC(=O)[C@@H](N)CSC1CC(=O)N(CCNS(=O)(=O)c2ccc(C3=c4cc5c6c(c4Oc4c3cc3c7c4CCCN7CCC3)CCC[N+]=6CCC5)c(S(=O)(=O)[O-])c2)C1=O)C(=O)N[C@@H](CC(C)C)C(=O)N[C@@H](CCCNC(=N)N)C(=O)N[C@@H](Cc1ccc(O)cc1)C(=O)N[C@@H](CC(C)C)C(=O)N[C@@H](CC(C)C)C(=O)N[C@@H](CC(=O)O)C(=O)N[C@@H](CCCCN)C(=O)N[C@@H](CC(=O)O)C(=O)N[C@@H](CC(=O)O)C(=O)N[C@H](C(=O)N[C@@H](CCCCN)C(=O)N[C@@H](CC(=O)O)C(=O)O)[C@@H](C)O (some centres unmarked) [SRC2-3_Texas-Red] | – | – | – | – | 0.93±0.04 | -2.2 ± 0.12 kcal/mol
